Columns and labels:
MK2 [1] = tested on: MK2; set-up: method as in PMID 24900358; conditions: @100 μM ATP; cited from earlier work
MK2 [2] = target: MK2 (Homo sapiens, UniProt P49137); experiment: biochemical
[3] = buffer stability at pH 7.4 (HPLC); format: physicochemical; conditions: pH 7.4, over the incubation time
MK2 [4] = target: T1, MK2 (Homo sapiens, UniProt P49137, DEL216-236/P237G); experiment: intact protein MS with MK2 (covalent modification); conditions: for covalent modification of MK2 (covalent binding): 5-fold excess compound over MK2, rt, 3 h; for Ratio [%] (AUC[mod]/(AUC[unmod]+AUC[mod])): 50 µM protein, 250 µM compound, room temperature, 3 hours, relative quantification from deconvoluted spectra
T1 sequence (P49137 with tags, fused parts or gaps DEL216-236/P237G): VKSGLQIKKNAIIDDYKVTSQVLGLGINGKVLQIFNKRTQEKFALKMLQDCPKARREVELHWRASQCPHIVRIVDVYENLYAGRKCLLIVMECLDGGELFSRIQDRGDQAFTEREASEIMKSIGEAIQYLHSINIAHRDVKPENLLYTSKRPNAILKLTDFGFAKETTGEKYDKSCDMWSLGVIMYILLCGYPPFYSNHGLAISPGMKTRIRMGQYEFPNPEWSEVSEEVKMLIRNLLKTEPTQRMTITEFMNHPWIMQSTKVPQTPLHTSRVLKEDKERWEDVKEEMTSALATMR
Method: using a NanoDrop 2000 spectrophotometer (Thermo Scientific), with molar extinction coefficient
and molecular weight specified using the "other protein (E & MW)" setting.
at 4 °C for 24 hours. For the negative control, an equivalent volume of DMSO was added to the
protein solution. To quench the reaction, 0.1% formic acid in the double-distilled water (ddH₂O)
was added in a 1:10 ratio (v/v), followed by desalting of the samples using C8 stage tips with the
MS data acquisition was carried out on a Time-of-Flight (TOF)
LC/MS system (Agilent 6200 series) equipped with a positive electrospray ionization (ESI) source.
A volume of 5 µL of the desalted sample was injected for mass spectrometry (MS) analysis. To
prevent cross-sample contamination, blank injections were run between each sample. Data were
deconvoluted and analyzed using Agilent’s MassHunter Bioconfirm software, applying a scan
range of 600–2000 m/z, a mass range of 10–100 kDa, a mass step of 1 Da, and a baseline
at room temperature for 3 hours. For the negative control, an equivalent volume of DMSO was
added to the protein solution. To quench the reaction, 0.1% formic acid in the double -distilled
water (ddH₂O) was added in a 1:10 ratio (v/v), followed by desalting of the samples using C8 stage
The UHPLC-system consisted of an Agilent
(G1316C) and a valve drive (G1170A) equipped with a 2-pos 6-port valve for online desalting of the
samples. Mobile phase A (water + 0.1 % (v/v) formic acid) and mobile phase B (acetonitrile + 0.1
% (v/v) formic acid) were used for gradient elution on a BIOshell Protein C4 HPLC column (5 cm x
2.1 mm, 3.4 μm, 400 Å; Merck, Darmstadt, Germany). The flow rate was set to 1.0 mL/min with
the following gradient settings: 0−0.2 min: 10 % B, 0.2−2.2 min: 10−80 % B, 2.2−3 min: 80 % B,
whole analysis. The UHPLC-system was coupled to a TripleTOF 5600+ mass spectrometer from
Sciex (Darmstadt, Germany) using a Duospray ion source in positiveionization mode and the
following source and MS parameters: curtain gas (CUR): 30 psi, nebulizing gas (GS1): 50 psi,
heater gas (GS2): 40 psi, ion spray floating voltage (ISVF): 5500 V, source temperature (TEM): 450
°C, collision energy (CE): 30 V, declustering potential (DP): 230 V. The acquisition was performed
in the TOF mode of the mass spectrometer using a mass range from 100 to 5000 m/z with an
accumulation time of 100 ms. Moreover, the IntactProteinMode -script from Sciex was used to
optimize MS settings for protein analysis. The Analyst TF 1.8.1 software and the PeakView
software 2.2.0 (both Sciex) were used for data acquisition and data analysis, respectively. Mass
spectra were deconvoluted using the BioToolKit 2.2.0 software package.
Relative quantification was performed with the area under curve (AUC) of each protein species in
the deconvoluted mass spectra with the PeakView software’s integration tool.
𝑅𝑎𝑡𝑖𝑜 [%] = 𝐴𝑈𝐶[𝑚𝑜𝑑] × 100

MK2 [5] = target: T1, MK2; experiment: kinact/KI from time- and concentration-dependent intact protein MS
Method: Determination of Kinetic Parameters
kinact/KI was measured based on time- and concentration-dependent analysis of intact protein
mass spectra using the bimolecular model described by the equations seen below, as reported
[PI]: concentration of the protein-compound complex, [PI*]: concentration
of the covalent protein-compound complex, [PI*] ≈ [PI] if kinact is relatively high. [P]0, [I]0:
concentration of initial protein and compound. t: incubation time(s).
When reaching each time point of incubation
(15 min, 30 min, 60 min, 120 min, 180 min), an aliquot of the reaction mixture was transferred into
1 % formic acid in ddH2O using a multichannel pipette (10 µL of sample added to 90 µL
ddH2O/1% formic acid), to stop the reaction at the exact time point. MS was performed and %
occupancy was calculated in the same way (see equations below).
time- and concentration -dependent % occupancy: import data as XY table. A nonlinear
regression fit was chosen to fit the curves, kinact/KI was set up as the constraint type of “Shared
value for all datasets”, initial value as 0, the rest settings are as default.
𝑂𝑐𝑐𝑢𝑝𝑎𝑛𝑐𝑦 [%] = 𝐼𝑚𝑜𝑑 × 100
[𝑃𝐼 ] = [𝑃]0[𝐼]0 ([𝑃] −[𝐼] )×𝑘 /𝐾 ×𝑡
𝑂𝑐𝑐𝑢𝑝𝑎𝑛𝑐𝑦 [%] = [𝑃𝐼] × 100

solubility observation = format: physicochemical
Source text: While the warhead now cannot rotate away anymore, it also is very limited in the trajectory it can assume prior to/during the bond-forming event. On the other hand, the tyrosine side chain is also a rather rigid structure (especially considering the degrees of freedom of cysteine or e.g. lysine in comparison) and if two very rigid structures are supposed to react with each other, a proper pre-orientation and a binding mode that enables a strain-free reaction trajectory play a much bigger role than for the reaction of two more flexible moieties like, for example, acrylamide and cysteine.

JAK3 [6] = target: T2, JAK3 (Homo sapiens, UniProt P52333); conditions: JAK3 ELISA, same assay conditions (starting at 10 μM)
T2 sequence (P52333 1-1124): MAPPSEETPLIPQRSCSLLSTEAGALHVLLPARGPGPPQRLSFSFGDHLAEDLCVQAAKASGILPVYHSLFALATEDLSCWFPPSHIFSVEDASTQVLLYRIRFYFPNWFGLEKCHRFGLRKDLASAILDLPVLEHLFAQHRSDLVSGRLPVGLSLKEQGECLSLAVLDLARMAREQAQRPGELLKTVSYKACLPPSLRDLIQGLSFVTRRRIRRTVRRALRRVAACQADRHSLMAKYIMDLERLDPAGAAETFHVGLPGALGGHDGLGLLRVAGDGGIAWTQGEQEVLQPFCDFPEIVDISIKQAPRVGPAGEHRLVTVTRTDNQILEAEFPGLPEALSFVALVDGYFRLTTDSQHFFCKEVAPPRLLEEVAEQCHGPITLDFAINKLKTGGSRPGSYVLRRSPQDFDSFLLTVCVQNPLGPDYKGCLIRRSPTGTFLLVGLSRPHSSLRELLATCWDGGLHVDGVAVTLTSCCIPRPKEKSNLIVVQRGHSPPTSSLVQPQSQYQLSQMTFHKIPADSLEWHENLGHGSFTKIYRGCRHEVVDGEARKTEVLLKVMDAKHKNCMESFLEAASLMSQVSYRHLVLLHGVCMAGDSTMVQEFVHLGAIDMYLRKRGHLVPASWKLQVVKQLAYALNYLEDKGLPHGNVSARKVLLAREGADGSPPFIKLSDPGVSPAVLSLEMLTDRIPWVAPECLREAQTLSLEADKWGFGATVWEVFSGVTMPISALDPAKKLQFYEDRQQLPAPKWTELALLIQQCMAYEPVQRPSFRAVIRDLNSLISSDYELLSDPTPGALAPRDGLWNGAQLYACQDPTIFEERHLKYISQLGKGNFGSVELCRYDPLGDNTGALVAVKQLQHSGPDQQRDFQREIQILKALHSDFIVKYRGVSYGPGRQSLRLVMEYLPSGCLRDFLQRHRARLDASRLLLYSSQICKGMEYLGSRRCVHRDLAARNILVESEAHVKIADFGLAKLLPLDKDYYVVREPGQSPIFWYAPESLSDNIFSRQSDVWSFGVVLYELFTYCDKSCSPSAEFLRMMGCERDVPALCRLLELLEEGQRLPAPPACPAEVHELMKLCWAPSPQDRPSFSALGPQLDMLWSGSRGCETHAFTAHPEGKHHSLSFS

JAK3 [7] = target: T2, JAK3; experiment: biochemical

Sequence of MK2 (Homo sapiens, UniProt P49137) (P49137 whole entry): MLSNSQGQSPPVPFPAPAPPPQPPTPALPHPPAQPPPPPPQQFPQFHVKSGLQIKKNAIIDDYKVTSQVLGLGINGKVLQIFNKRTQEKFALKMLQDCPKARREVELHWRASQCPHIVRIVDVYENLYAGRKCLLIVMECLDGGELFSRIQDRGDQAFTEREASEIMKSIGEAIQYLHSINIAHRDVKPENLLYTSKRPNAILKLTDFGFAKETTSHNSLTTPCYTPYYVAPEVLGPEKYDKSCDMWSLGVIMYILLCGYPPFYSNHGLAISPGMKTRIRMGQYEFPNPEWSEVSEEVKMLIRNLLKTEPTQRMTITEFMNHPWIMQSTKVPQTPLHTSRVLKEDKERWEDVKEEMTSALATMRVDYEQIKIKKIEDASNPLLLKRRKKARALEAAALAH

In the case of `O=C(c1ccc(-c2ccc(Cl)cc2)o1)N(Cc1ccccn1)c1ccc(N2CCNCC2)cc1` [compound 41, reference compound], the IC50 (MK2 [1]) is listed as 110 nM and the IC50 (MK2 [2]) is listed as > 5000 nM.

For `O=C(c1ccc(-c2ccc(Cl)c(O)c2)o1)N(Cc1ccccn1)c1ccc(N2CCNCC2)cc1` [compound 66], the IC50 (MK2 [2]) was > 5000 nM.

For `CC(C)(C)OC(=O)N1CCN(c2ccc(NC(=O)c3ccc(-c4ccc(Cl)cc4)o3)cc2S(=O)(=O)F)CC1` [compound 64], the buffer stability [3] was “some degradation” and the “covalent modification of MK2 (covalent binding)” value (“covalent modification of MK2” below) (MK2 [4]) was 15%.

In the case of `O=C(c1ccc(-c2ccc(Cl)cc2)o1)N(Cc1ccccn1)c1ccc(N2CCNCC2)c(OS(=O)(=O)F)c1` [compound 43], the “covalent modification of MK2” value (MK2 [4]) is reported as “no binding at all”.

For `O=C(c1ccc(-c2ccc(Cl)c(OS(=O)(=O)F)c2)o1)N(Cc1ccccn1)c1ccc(N2CCNCC2)cc1` [compound 42], the “Ratio [%] (AUC[mod]/(AUC[unmod]+AUC[mod]))” value (MK2 [4]) was 94.28%, the “covalent modification of MK2” value (MK2 [4]) was 95% and the kinact/KI (MK2 [5]) was 1.12 M⁻¹ s⁻¹.

For `O=C(c1ccc(-c2ccc(Cl)cc2)o1)N(Cc1ccccn1)c1ccc(N2CCNCC2)c(O)c1` [compound 67], the IC50 (MK2 [2]) was > 5000 nM.

For `O=c1c2cc(OS(=O)(=O)F)ccc2c2cnc3[nH]ccc3c2n1C1CCCCC1` [compound 35], the solubility (solubility observation) was “low solubility” and the inhibitory activity (JAK3 [6]) was “no relevant inhibitory activity”.

For `O=C(c1ccc(-c2ccc(Cl)cc2)o1)N(Cc1ccccn1)c1ccc(N2CCNCC2)c(S(=O)(=O)F)c1` [compound 65], the “Ratio [%] (AUC[mod]/(AUC[unmod]+AUC[mod]))” value (MK2 [4]) was 14.51% and the “covalent modification of MK2” value (MK2 [4]) was 15%.

In the case of `N#Cc1cccc(-c2cn(C3CCCCC3)c3c2cnc2[nH]ccc23)c1` [compound 6], the IC50 (JAK3 [7]) is reported as 5.2 nM.

Reference: PMC12315900, “A twist in the tale: shifting from covalent targeting of a tyrosine in JAK3 to a lysine in MK2” (RSC Medicinal Chemistry, 2025)
